Results taken from PMC3914206.

Columns and labels:
panel of 442 kinases [1] = biological target: T1, panel of 442 kinases (Homo sapiens, UniProt O94768); assay type: binding; design: KINOMEscan: ABL1(F317L)-phosphorylated / KINOMEscan: ABL1(H396P)-nonphosphorylated / KINOMEscan: ABL1(H396P)-phosphorylated / KINOMEscan: ABL1(M351T)-phosphorylated / KINOMEscan: ABL1(T315I)-phosphorylated / KINOMEscan: ABL1-nonphosphorylated / KINOMEscan: ABL1-phosphorylated / KINOMEscan: ACVR2A / KINOMEscan: ACVR2B / KINOMEscan: ADCK3 / KINOMEscan: ADCK4 / KINOMEscan: AKT1 / KINOMEscan: AKT3 / KINOMEscan: ALK / KINOMEscan: ARK5 / KINOMEscan: AURKA / KINOMEscan: AURKC / KINOMEscan: BIKE / KINOMEscan: BMPR1A / KINOMEscan: BMPR1B / KINOMEscan: BMX / KINOMEscan: BRK / KINOMEscan: BRSK1 / KINOMEscan: BRSK2 / KINOMEscan: CAMK1 / KINOMEscan: CAMK1D / KINOMEscan: CAMK1G / KINOMEscan: CAMK2A / KINOMEscan: CAMK2B / KINOMEscan: AAK1 / KINOMEscan: CAMK2D / KINOMEscan: CAMK2G / KINOMEscan: ABL1(F317I)-nonphosphorylated / KINOMEscan: ABL1(F317I)-phosphorylated / KINOMEscan: ABL1(F317L)-nonphosphorylated: unit: % Ctrl; conditions: Compound Concentration 10 µM
T1 construct: purchased KINOMEscan
T1 sequence (O94768 1-372): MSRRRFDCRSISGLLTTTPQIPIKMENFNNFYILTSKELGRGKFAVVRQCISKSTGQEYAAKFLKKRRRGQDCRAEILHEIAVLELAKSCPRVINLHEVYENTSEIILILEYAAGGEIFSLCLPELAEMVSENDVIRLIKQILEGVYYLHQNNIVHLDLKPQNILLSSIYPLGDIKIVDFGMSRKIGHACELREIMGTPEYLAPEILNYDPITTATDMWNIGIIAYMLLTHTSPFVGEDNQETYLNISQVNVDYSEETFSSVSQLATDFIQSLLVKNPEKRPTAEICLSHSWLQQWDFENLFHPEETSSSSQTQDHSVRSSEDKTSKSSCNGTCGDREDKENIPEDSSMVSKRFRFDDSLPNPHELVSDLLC
Description: (§1) We assessed the selectivity of members of this scaffold using the KINOMEscan methodology across a near comprehensive panel of 442 kinases [[18,27]].

panel of 442 kinases [2] = biological target: T2, panel of 442 kinases (Homo sapiens, UniProt P51813); assay type: binding; design: KINOMEscan: ABL1(F317L)-phosphorylated / KINOMEscan: ABL1(H396P)-nonphosphorylated / KINOMEscan: ABL1(H396P)-phosphorylated / KINOMEscan: ABL1(M351T)-phosphorylated / KINOMEscan: ABL1(T315I)-phosphorylated / KINOMEscan: ABL1-nonphosphorylated / KINOMEscan: ABL1-phosphorylated / KINOMEscan: ACVR2A / KINOMEscan: ACVR2B / KINOMEscan: ADCK3 / KINOMEscan: ADCK4 / KINOMEscan: AKT1 / KINOMEscan: AKT3 / KINOMEscan: ALK / KINOMEscan: ARK5 / KINOMEscan: AURKA / KINOMEscan: AURKC / KINOMEscan: BIKE / KINOMEscan: BMPR1A / KINOMEscan: BMPR1B / KINOMEscan: BMX / KINOMEscan: BRK / KINOMEscan: BRSK1 / KINOMEscan: BRSK2 / KINOMEscan: CAMK1 / KINOMEscan: CAMK1D / KINOMEscan: CAMK1G / KINOMEscan: CAMK2A / KINOMEscan: CAMK2B / KINOMEscan: AAK1 / KINOMEscan: CAMK2D / KINOMEscan: CAMK2G / KINOMEscan: ABL1(F317I)-nonphosphorylated / KINOMEscan: ABL1(F317I)-phosphorylated / KINOMEscan: ABL1(F317L)-nonphosphorylated: unit: % Ctrl; conditions: Compound Concentration 10 µM
T2 construct: purchased KINOMEscan
T2 sequence (P51813 1-675): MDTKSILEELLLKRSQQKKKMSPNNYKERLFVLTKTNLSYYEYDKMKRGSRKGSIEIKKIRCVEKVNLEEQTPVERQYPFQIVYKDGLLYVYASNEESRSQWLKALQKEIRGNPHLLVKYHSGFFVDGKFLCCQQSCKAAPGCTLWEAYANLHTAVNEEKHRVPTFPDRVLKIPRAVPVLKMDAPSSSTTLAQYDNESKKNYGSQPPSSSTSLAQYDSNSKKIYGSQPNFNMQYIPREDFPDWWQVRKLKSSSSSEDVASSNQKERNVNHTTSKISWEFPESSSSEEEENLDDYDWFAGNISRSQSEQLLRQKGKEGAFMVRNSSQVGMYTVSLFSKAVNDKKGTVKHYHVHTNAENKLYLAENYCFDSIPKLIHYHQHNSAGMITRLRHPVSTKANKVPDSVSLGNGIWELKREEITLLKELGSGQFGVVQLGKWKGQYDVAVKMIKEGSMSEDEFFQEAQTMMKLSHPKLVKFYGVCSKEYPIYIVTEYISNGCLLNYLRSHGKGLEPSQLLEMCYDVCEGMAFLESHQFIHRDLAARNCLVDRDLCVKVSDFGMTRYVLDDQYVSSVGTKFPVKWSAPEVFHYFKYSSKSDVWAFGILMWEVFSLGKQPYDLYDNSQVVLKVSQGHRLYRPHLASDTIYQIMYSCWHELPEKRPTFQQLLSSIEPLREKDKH
Description: as §1

| Structure (SMILES) | KINOMEscan: DRAK2 (panel of 442 kinases [1]) | KINOMEscan: BMX (panel of 442 kinases [2]) |
| --- | --- | --- |
| COc1cc(C(=O)N2CCC(N3CCN(C)CC3)CC2)ccc1Nc1ncc2c(n1)N(C)c1ccccc1C(=O)N2C [15 (LRRK2-IN-1)] | 93 | 87 |
| COc1cc(C(=O)N2CCC(N3CCN(C)CC3)CC2)ccc1Nc1ncc2c(n1)N1CCc3cccc(c31)C(=O)N2C [Compound 24] | – | 71 |
| COc1cc(C(=O)N2CCC(N3CCN(C)CC3)CC2)ccc1Nc1ncc2c(n1)N(C1CCCC1)c1ccccc1C(=O)N2C [Compound 25, 11-cyclopentyl-2-((2-methoxy-4-(4-(4-methylpiperazin-1-yl)piperidine-1-carbonyl)phenyl)amino)-5-methyl-5H-benzo[e]pyrimido[5,4-b][1,4]diazepin-6(11H)-one] | 100 | 91 |
| CCOc1cc(C(=O)N2CCC(N3CCN(C)CC3)CC2)ccc1Nc1ncc2c(n1)N(C1CCCC1)c1ccccc1C(=O)N2C [Compound 26] | 100 | 100 |
